{"source": "patent US7781409B2", "about": "“Composition for external use” (Suntory Holdings Limited, priority 2003, dated 2010)", "key": {"burn patient": {"tested_on": "burn patient", "conditions": "applied, Japanese Cosmetic Science Society 1998; cited from earlier work"}, "[1]": {"conditions": "rat, J.Pharmacobio-Dyn., 13, 688, 1990; cited from earlier work"}, "guinea pig skin": {"tested_on": "guinea pig skin", "conditions": "shaved back, external application, Fragrance Journal 1997; cited from earlier work"}, "human skin": {"tested_on": "human skin", "conditions": "cream containing the compound applied, Fragrance Journal 1997; cited from earlier work"}, "[2]": {"tested_on": "human isolated skin piece", "conditions": "female, 5 h, 100 mM, pH 7.25"}, "[3]": {"tested_on": "keratinocytes (HaCaT) derived from human skin epidermis", "test": "Protective effect on cell death of keratinocytes (HaCaT) by UVB irradiation (WST-1 cell survival rate)", "format": "cell-based", "conditions": "same concentration, compared with ascorbic acid or 2-O-(α-D-glucopyranosyl)ascorbic acid; FIG. 1", "description": "Human skin keratinocytes HaCaT (cell line gifted by Dr. Fusenig of Heidelberg University) was seeded to 10% bovine fetal serum (FBS)-containing Dulbecco modified Eagle medium (DMEM) at 10,000 cells/well in a 24-well plate, and after 18 hours, 35 millijoule/square centimeter (mJ/cm^2) of UBV (maximum wavelength 312 nm) was irradiated. Two hours before the irradiation, 20 to 100 μM of 2-O-(β-D-glucopyranosyl)ascorbic acid was added, and such ascorbic acid was removed immediately before the irradiation and then rinsed. Irradiation was performed in PBS in the absence of a drug, and after irradiation, culturing was continued in a FBS 10%-containing DMEM medium, and 24 hours after irradiation, a cell survival rate was investigated by a method for measuring mitochondrion dehydrogenase activity with the use of 2-(4-iodophenyl)-3-(4-nitrophenyl)-5-(2,4-disulfophenyl)-2H-tetrazolium monosodium salt (WST-1). Similarly, as Comparative Example, 2-O-(α-D-glucopyranosyl) ascorbic acid and ascorbic acid were studied, and the results are also shown in FIG. 1."}, "[4]": {"test": "Pharmacokinetics at oral ingestion by a rat: intact form in blood", "format": "in vivo"}, "[5]": {"tested_on": "normal human dermal fibroblasts (NHDF)", "test": "Collagen synthesis of normal human dermal fibroblasts (3H-proline incorporation, collagenase-sensitive)", "format": "cell-based", "conditions": "compared with 2-O-(α-D-glucopyranosyl)ascorbic acid or ascorbic acid; FIG. 3", "description": "Normal human dermal fibroblasts NHDF are seeded in a dish having a diameter of 100 millimeter at 370,000 cells. […] After additional 1 hour, 0.12 mL (120 μCi) of L-(2,3-^3H) proline is added, followed by culturing for 48 hours. After culturing, the medium is removed, and a cell sheet is rinsed with PBS four times. Then, cells are peeled with trypsin, cells are lysed with an alkali, and neutralized to obtain an intracellular protein. The protein is subjected to collagen degradation with collagenase of Clostridium to obtain a protein fraction, and radioactivity of the fraction is measured with a liquid scintillation counter using […]. Separately, radioactivity of an intracellular protein fraction which has not been treated with collagenase is similarly measured with a liquid scintillation counter. A difference between respective radioactivities obtained is adopted as collagen synthesis activity."}, "[6]": {"tested_on": "human skin keratinocytes HaCaT", "test": "Concentration of intracellular ascorbic acid in human skin keratinocytes", "format": "cell-based", "conditions": "compared with 2-O-(α-D-glucopyranosyl)ascorbic acid and ascorbic acid; FIG. 2", "description": "At 3 to 24 hours after addition, a medium is removed, rinsed twice with ice-cooled PBS, and a cell sheet is peeled with trypsin to make single cell state. This is suspended in PBS containing 50 μM dithiothreitol (DTT), and rinsed three times by centrifugation. The cell suspension is disrupted with a potter-type teflon (registered trademark) homogenizer, and then frozen and thawed twice. […] SHODEX® ODSpak (manufactured by SHOWA DENKO K.K., 4.6×150 mm) , mobile phase: 0.1 M KH2PO4-H3PO4 (pH 2.35)-0.1 mM EDTA-2Na, flow rate: 1.5 mL/min)."}, "pig skin": {"tested_on": "pig skin", "conditions": "10% aqueous solution, pre-administration for 3 days to one week, Br. J. Dermatol. 1992; cited from earlier work"}}, "note": "Like-named read-outs stand apart in the source and are kept apart here.", "data": [{"smiles": "O=C1O[C@H]([C@@H](O)CO)C(O)=C1OP(=O)(O)O", "note": "[ascorbic acid 2-phosphate]", "values": [{"measurement": "Cure of burn", "setting": "burn patient", "result": "cured without scar"}]}, {"smiles": "O=C1O[C@H]([C@@H](O)CO)C(O)=C1O[C@H]1O[C@H](CO)[C@@H](O)[C@H](O)[C@H]1O", "note": "[2-O-(α-D-glucopyranosyl)ascorbic acid]", "values": [{"measurement": "Intact form in blood after oral ingestion", "setting": "[1]", "result": "not detected as an intact form in blood"}, {"measurement": "Inducement of skin inflammation due to UVB irradiation", "setting": "guinea pig skin", "result": "suppressed"}, {"measurement": "Pigmentation due to ultraviolet-ray irradiation", "setting": "human skin", "result": "suppressed"}]}, {"smiles": "O=C1O[C@H]([C@@H](O)CO)C(O)=C1O[C@@H]1O[C@H](CO)[C@@H](O)[C@H](O)[C@H]1O", "note": "[AβG, 2-O-(β-D-glucopyranosyl)ascorbic acid]", "values": [{"measurement": "Ratio (%) of reduced form of vitamin C occupied in total vitamin C in skin, Dermis", "setting": "[2]", "result": 25, "unit": "%"}, {"measurement": "Ratio (%) of reduced form of vitamin C occupied in total vitamin C in skin, Epidermis", "setting": "[2]", "result": 67, "unit": "%"}, {"measurement": "Total vitamin C in skin, Dermis", "setting": "[2]", "result": 3, "unit": "nmol/g tissue"}, {"measurement": "Total vitamin C in skin, Epidermis", "setting": "[2]", "result": 15, "unit": "nmol/g tissue"}, {"measurement": "Uptake amount of AβG into skin piece, Dermis", "setting": "[2]", "result": 500}, {"measurement": "Uptake amount of AβG into skin piece, Epidermis", "setting": "[2]", "result": "3,400"}, {"measurement": "Suppression of cell death of keratinocytes (HaCaT) due to UVB irradiation", "setting": "[3]", "result": "clearly suppressed more strongly cell death"}, {"measurement": "Intact form in blood after oral ingestion", "setting": "[4]", "result": "detected in blood"}, {"measurement": "Collagen synthesis by normal human dermal fibroblasts (NHDF)", "setting": "[5]", "result": "has higher activity"}, {"measurement": "Concentration of intracellular ascorbic acid in human skin keratinocytes", "setting": "[6]", "result": "maintained at a highest concentration for a longest term"}]}, {"smiles": "O=C1O[C@H]([C@@H](O)CO)C(O)=C1O", "note": "[ascorbic acid]", "values": [{"measurement": "Inducement of skin inflammation due to UVB irradiation", "setting": "guinea pig skin", "result": "suppressed"}, {"measurement": "Ultraviolet-ray disorder", "setting": "pig skin", "result": "ultraviolet-ray disorder can be alleviated"}]}]}
